This is an account of results in patent US20250388584A1, “TPK AGONIST AND METHOD FOR TREATING NEURODEGENERATIVE DISEASES USING SAME” (SHANGHAI RAISING PHARMACEUTICAL CO., LTD., priority 2022, published 2025).

This experiment concerns the target TPK enzyme (Homo sapiens (Human), UniProt Q9H3S4). Description: TPK enzyme activity test. It counts as biochemical. The settings on record: for Emax: calculated with the effect of DMSO on TPK enzyme activity as 100%, read-out: Emax; for EC50: promoting effect on TPK enzyme activity.

Sequence of TPK enzyme (Q9H3S4 whole entry): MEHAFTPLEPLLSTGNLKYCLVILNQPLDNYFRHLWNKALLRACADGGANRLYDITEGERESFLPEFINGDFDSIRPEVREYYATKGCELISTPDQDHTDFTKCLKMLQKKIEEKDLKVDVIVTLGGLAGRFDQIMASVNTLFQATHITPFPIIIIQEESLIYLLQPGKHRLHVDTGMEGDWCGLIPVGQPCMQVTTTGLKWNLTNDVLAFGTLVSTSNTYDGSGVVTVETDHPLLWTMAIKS

For the molecule `COc1ccccc1N1CCN(C(=O)CCn2cnc3c([nH]c4ccc(C)cc43)c2=O)CC1` [Compound 47], the Emax is 135%.

For `Cc1ccc2[nH]c3c(=O)n(CCCN4CCN(c5cccc(C(F)(F)F)c5)CC4)cnc3c2c1` [Compound 49, 8-methyl-3-(3-(4-(3-(trifluoromethyl)phenyl)piperazin-1-yl)propyl)-3,5-dihydro-4H-pyrimido[5,4-b]indol-4-one], the Emax is 136%.

With `O=C(CCn1cnc2c([nH]c3ccc(C(F)(F)F)cc32)c1=O)N1CCN(Cc2cccc(C(F)(F)F)c2)CC1` [Compound 53, 3-(3-oxo-3-(4-(3-(trifluoromethyl)benzyl)piperazin-1-yl)propyl)-8-(trifluoromethyl)-3,5-dihydro-4H-pyrimido[5,4-b]indol-4-one], the Emax is 162% and the midpoint of the response, the EC50, lay at 1580 nM.

As to `O=C(CCn1cnc2c([nH]c3ccc(C(F)(F)F)cc32)c1=O)N1CCN(Cc2cc(F)c(F)c(F)c2)CC1` [Compound 54, 3-(3-oxo-3-(4-(3,4,5-trifluorobenzyl)piperazin-1-yl)propyl)-8-(trifluoromethyl)-3,5-dihydro-4H-pyrimido[5,4-b]indol-4-one], the Emax is 170% and a half-maximal effect (EC50) was put at 1680 nM.

For `Cc1ccc2[nH]c3c(=O)n(CC(=O)NCCCN4CCN(Cc5ccccc5)CC4)ncc3c2c1` [Compound 55], the Emax was 159% and the response was half-maximal at 10600 nM (EC50).

As to `Cc1ccc2oc3c(=O)n(CCC(=O)N4CCN(c5cccc(C(F)(F)F)c5)CC4)cnc3c2c1` [Compound 57, 8-methyl-3-(3-oxo-3-(4-(3-(trifluoromethyl)phenyl)piperazin-1-yl)propyl)benzofuro[3,2-d]pyrimidin-4(3H)-one], the Emax was 159% and the EC50 came out at 1190 nM.

`O=C(Cn1cnc2c(oc3ccccc32)c1=O)N1CCN(c2cccc(C(F)(F)F)c2)CC1` [Compound 58]: the Emax was 147%.

With `Cc1ccc2[nH]c3c(=O)n(CCC(=O)N4CCN(c5cccc(C(F)(F)F)c5)CC4)ccc3c2c1` [Compound 59, 6-methyl-2-(3-oxo-3-(4-(3-(trifluoromethyl)phenyl)piperazin-1-yl)propyl)-2,9-dihydro-1H-pyrido[3,4-b]indol-1-one], the Emax is 190% and the EC50 turned out to be 1380 nM.

For `Cc1ccc2[nH]c3c(=O)n(CCC(=O)N4CCN(c5cccc(C(F)(F)F)c5)CC4)cnc3c2c1` [Compound 61], the maximum response (Emax) was 172% and the EC50 was determined as 1210 nM.

`Cc1ccc2[nH]c3c(=O)n(CC(=O)N4CCN(c5ccc(F)cc5)CC4)cnc3c2c1` [Compound 63]: the Emax is 148%.

For the molecule `Cc1ccc2[nH]c3c(=O)n(CCC(=O)NCc4cc(C(F)(F)F)cc(C(F)(F)F)c4)cnc3c2c1` [Compound 66, N-(3,5-bis(trifluoromethyl)benzyl)-3-(8-methyl-4-oxo-4,5-dihydro-3H-pyrimido[5,4-b]indol-3-yl)propanamide], the Emax was 138%.

Consider `Cc1ccc2[nH]c3c(=O)n(CCC(=O)NCc4cccc(C(F)(F)F)c4)ccc3c2c1` [Compound 67, 3-(6-methyl-1-oxo-1,9-dihydro-2H-pyrido[3,4-b]indol-2-yl)-N-(3-(trifluoromethyl)benzyl)propanamide], for which the Emax is 187% and a half-maximal response (EC50) required 1200 nM.

In the case of `Cc1ccc2[nH]c3c(=O)n(CCC(=O)NCCCc4cccc(C(F)(F)F)c4)cnc3c2c1` [Compound 69, 3-(8-methyl-4-oxo-4,5-dihydro-3H-pyrimido[5,4-b]indol-3-yl)-N-(3-(3-(trifluoromethyl)phenyl)propyl)propanamide], the Emax was 168%.

For `O=C(CCn1cnc2c([nH]c3ccc(C(F)(F)F)cc32)c1=O)NCc1cccc(C(F)(F)F)c1` [Compound 71, 3-(4-oxo-8-(trifluoromethyl)-4,5-dihydro-3H-pyrimido[5,4-b]indol-3-yl)-N-(3-(trifluoromethyl)benzyl)propanamide], the Emax is 142%.

With `Cc1ccc2[nH]c3c(=O)n(CCNC(=O)Cc4cccc(C(F)(F)F)c4)cnc3c2c1` [Compound 72, N-(2-(8-methyl-4-oxo-4,5-dihydro-3H-pyrimido[5,4-b]indol-3-yl)ethyl)-2-(3-(trifluoromethyl)phenyl)acetamide], the Emax is 122%.

As to `Cc1cccc2[nH]c3c(=O)n(CCC(=O)NCc4cccc(C(F)(F)F)c4)cnc3c12` [Compound 77, 3-(9-methyl-4-oxo-4,5-dihydro-3H-pyrimido[5,4-b]indol-3-yl)-N-(3-(trifluoromethyl)benzyl)propanamide], the Emax is 122%.

`COc1cccc(CNC(=O)CCn2cnc3c([nH]c4ccc(C)cc43)c2=O)c1` [Compound 81]: the Emax is 123%.

`Cc1ccc2[nH]c3c(=O)n(CCC(=O)NCc4cccc(O)c4)cnc3c2c1` [Compound 82, N-(3-hydroxybenzyl)-3-(8-methyl-4-oxo-4,5-dihydro-3H-pyrimido[5,4-b]indol-3-yl)propanamide]: the maximum response (Emax) is 123%.

Consider `COC(=O)c1cccc(CNC(=O)CCn2cnc3c([nH]c4ccc(C)cc43)c2=O)c1` [Compound 83, methyl 3-((3-(8-methyl-4-oxo-4,5-dihydro-3H-pyrimido[5,4-b]indol-3-yl)propanamido)methyl)benzoate], for which the Emax is 126%.

As to `Cc1ccc2oc3c(=O)n(CCC(=O)NCc4cccc(C(F)(F)F)c4)cnc3c2c1` [Compound 87, 3-(8-methyl-4-oxobenzofuro[3,2-d]pyrimidin-3(4H)-yl)-N-(3-(trifluoromethyl)benzyl)propanamide], the Emax is 146%.

As to `Cc1ccc2[nH]c3c(=O)n(CCC(=O)NCc4cccc(S(N)(=O)=O)c4)cnc3c2c1` [Compound 88], the Emax was 124%.

Consider `Cc1ccc2[nH]c3c(=O)n(CCC(=O)NCCNc4cccc(C(F)(F)F)c4)cnc3c2c1` [Compound 89, 3-(8-methyl-4-oxo-4,5-dihydro-3H-pyrimido[5,4-b]indol-3-yl)-N-(2-((3-(trifluoromethyl)phenyl)amino)ethyl)propanamide], for which the Emax is 132%.

As to `Cc1ccc2[nH]c3c(=O)n(CCC(=O)N(C)CCNc4cccc(C(F)(F)F)c4)cnc3c2c1` [Compound 91, N-methyl-3-(8-methyl-4-oxo-4,5-dihydro-3H-pyrimido[5,4-b]indol-3-yl)-N-(2-((3-(trifluoromethyl)phenyl)amino)ethyl)propanamide], the Emax was 140% and a half-maximal response (EC50) required 3720 nM.

For the molecule `Cc1ccc2[nH]c3c(=O)n(CCC(=O)N(C)CCN(C)c4cccc(C(F)(F)F)c4)cnc3c2c1` [Compound 92, N-methyl-N-(2-(methyl(3-(trifluoromethyl)phenyl)amino)ethyl)-3-(8-methyl-4-oxo-4,5-dihydro-3H-pyrimido[5,4-b]indol-3-yl)propanamide], the maximal effect (Emax) was 160% and the half-maximal effective concentration (EC50) is 3560 nM.

As to `Cc1ccc2[nH]c3c(=O)n(CCC(=O)NCCN(C)c4cccc(C(F)(F)F)c4)cnc3c2c1` [Compound 93, N-(2-(methyl(3-(trifluoromethyl)phenyl)amino)ethyl)-3-(8-methyl-4-oxo-4,5-dihydro-3H-pyrimido[5,4-b]indol-3-yl)propanamide], the maximum response (Emax) was 192%.

Regarding `Cc1ccc2[nH]c3c(=O)n(CCC(=O)NCc4cccc(C(F)(F)F)c4)cnc3c2c1` [Compound 97], the Emax is 178% and the EC50 was determined as 1010 nM.

Take `COc1cc2[nH]c3c(=O)n(CC(=O)NCc4cccc(C(F)(F)F)c4)cnc3c2cc1OC` [Compound 113]: the Emax was 120%.

For `CC(C)c1ccc(CNC(=O)CCn2cnc3c([nH]c4ccc(F)cc43)c2=O)cc1` [Compound 118], the Emax was 122%.

On to `Cc1ccc2[nH]c3c(=O)n(CCC(=O)NCCNc4ccc5c(c4)CCCC5)cnc3c2c1` [Compound 131, 3-(8-methyl-4-oxo-4,5-dihydro-3H-pyrimido[5,4-b]indol-3-yl)-N-(2-((5,6,7,8-tetrahydronaphthalen-2-yl)amino)ethyl)propanamide], for which the maximal effect (Emax) is 193%.

As for `Cc1ccc2[nH]c3c(=O)n(CCC(=O)NCCNc4ccc5ccccc5c4)cnc3c2c1` [Compound 132, 3-(8-methyl-4-oxo-4,5-dihydro-3H-pyrimido[5,4-b]indol-3-yl)-N-(2-(naphthalen-2-ylamino)ethyl)propanamide], the Emax was 163%.

On to `Cc1ccc2[nH]c3c(=O)n(CCC(=O)NCc4cn5ccccc5n4)cnc3c2c1` [Compound 134, N-(imidazo[1,2-a]pyridin-2-ylmethyl)-3-(8-methyl-4-oxo-4,5-dihydro-3H-pyrimido[5,4-b]indol-3-yl)propanamide], for which the Emax is 125%.

As for `Cc1ccc2nc3c(=O)n(CCC(=O)N4CCN(c5cccc(C(F)(F)F)c5)CC4)cnc3cc2c1` [Compound 138, 8-methyl-3-(3-oxo-3-(4-(3-(trifluoromethyl)phenyl)piperazin-1-yl)propyl)pyrimido[5,4-b]quinolin-4(3H)-one], the maximal response (Emax) is 146% and the EC50 stood at 1160 nM.

Turning to `COc1ccc2c(c1)N1CCN(c3ccccc3OC)CC1C(C(=O)NCCN1CCCCC1)C2` (stereo not shown) [Compound 139], the Emax was 198% and the response was half-maximal at 950 nM (EC50).

For `COc1ccc2c(c1)N1CCN(c3ccc(C)cc3)CC1C(C(=O)Nc1ccccc1)C2` (stereo not shown) [Compound 140], the Emax was 187%.

Turning to `O=C(N[C@@H](Cc1ccc(F)cc1)C(=O)O)OCC1c2ccccc2-c2ccccc21` [Compound 141], the Emax is 204% and the midpoint of the response, the EC50, lay at 4070 nM.

For the molecule `C[C@H](OC(C)(C)C)[C@@H](NC(=O)OCC1c2ccccc2-c2ccccc21)C(=O)O` [Compound 142], the Emax is 224% and the EC50 is 9040 nM.

For the molecule `O=C(CCn1cnc2c(sc3ccccc32)c1=O)N1CCC(O)(c2cccc(C(F)(F)F)c2)CC1` [Compound 147, 3-(3-(4-hydroxy-4-(3-(trifluoromethyl)phenyl)piperidin-1-yl)-3-oxopropyl)benzo[4,5]thieno[3,2-d]pyrimidin-4(3H)-one], the Emax is 160% and the EC50 turned out to be 7720 nM.
